Results as given in patent US20240336568A1, “SELECTIVE PHD1 INHIBITOR COMPOUNDS, COMPOSITIONS, AND METHODS OF USE” (Akebia Therapeutics, Inc., priority 2021, published 2024).

test system: full-length human prolyl-4-hydroxylase domain (PHD) enzymes, PHD1 and PHD2; test: TR-FRET assay, selectivity of compounds for PHD1 over PHD2 (ratio of Kis calculated from IC50s); format: biochemical; details: ratio of Kis (PHD2 Ki/PHD1 Ki), Kis calculated from TR-FRET IC50s by Cheng Prussoff equation; 1 uM 2-OG
Source text: Time-resolved fluorescence resonance energy transfer (TR-FRET) assay was utilized to determine the enzymatic half maximal inhibitory concentration (IC50) value of PHD inhibitors against the full-length human prolyl-4-hydroxylase domain (PHD) enzymes, PHD1 and PHD2. The TR-FRET assay was developed based on the specific binding of hydroxylated HIF-la peptide with the complex formed by VHL, EloB and EloC (VBC), to generate a fluorescent signal. Terbium (Tb)-Donor (monoclonal antibody anti-6His-Tb-cryptate Gold) and D2-acceptor (streptavidin [SA]-D2) of TR-FRET are linked to the VBC complex and to HIF-1α peptide, respectively. The VBC complex binds specifically to the HIF-1α peptide when it is hydroxylated, allowing energy transfer from TR-FRET donor to acceptor (FIG. 1).
TR-FRET Reagents. Monoclonal antibody anti-6His-Tb-cryptate Gold (catalog #61HI2TLA) and streptavidin (SA)-D2 (catalog #610SADLA) were purchased from CisBio International (Bedford, MA, USA).
N-terminus biotinylated HIF-1α C35 synthetic peptide representing amino acids 547 to 581 and including the proline 564 PHD2 hydroxylation site was purchased from California Peptide Research (Salt Lake City, UT, USA).
VBC Complex. His-tagged recombinant VHL protein, EloB, EloC complex (His-VBC) was supplied by Axxam (Milan, Italy). Recombinant human VHL (National Center for Biotechnology Information [NCBI] accession number NP_00542.1) contained a His tag at the C-terminus of amino acids 55 to 213 and is referred to as VHL-His. VHL-His was co-expressed in E. coli with full-length human EloB (NCBI accession number Q15370.1) and full-length human EloC (NCBI accession number Q15369.1) and purified by affinity chromatography on a nickel-nitrilotriacetic acid (Ni-NTA) column as the His-VBC complex. Purity (˜80%) was assessed by sodium dodecyl sulfate polyacrylamide gel electrophoresis (SDS-PAGE).
PHD1. Recombinant human PHD1 protein (catalog #81064, Lot #24717001) was purchased from Active Motif (Carlsbad, CA, USA). PHD1 was expressed in a baculovirus expression system as the full-length protein (NCBI accession number NP_542770.2) with an N-terminal FLAG tag (molecular weight 44.9 kDa). Purity (>90%) was assessed by SDS-PAGE.
PHD2. The full-length human PHD2 enzyme was produced with a baculovirus infected insect cell (BIIC) expression system by Beryllium (Bedford, MA, USA). The PHD2 construct contained amino acids 1 to 426 of PHD2 (UniProt Knowledgebase[UniProtKB]/Swiss-Prot accession number Q9GZT9.1), and a His tag and a Tobacco Etch Virus (TEV) protease cleavage site at the N-terminus. The construct was expressed in Sf9 insect cells, purified by Ni-NTA column and digested with TEV protease to remove the His tag.
Compounds were preincubated with PHD enzyme in a 10 μL reaction volume in white 384-well Optiplate microplates (catalog #6007290, Perkin Elmer, Waltham, MA, USA). For this, 5 μL compound was serially diluted with dilution buffer (50 mM HEPES [4-(2-hydroxyethyl)-1-piperazineethanesulfonic acid] pH 7.5, 50 mM sodium chloride [NaCl], 0.01% Tween-20, 0.01% purified bovine serum albumin [BSA]) and mixed with 5 μL PHD enzyme mix prepared as a 4× concentrate in the dilution buffer containing PHD enzyme (60 nM PHD1, 20 nM PHD2, 140 nM PHD3), 40 μM ferrous ammonium sulfate (FAS), 4 mM sodium (Na) ascorbate. The plates were incubated for 30 minutes at room temperature without rotation.
Five microliters of the VBC/anti-6His-Tb-cryptate Gold mix prepared as a 4× concentrate in dilution buffer containing 20 nM His-VBC, 1.32 nM monoclonal antibody anti-6His-Tb-cryptate Gold was then added. This step was followed immediately by the addition of 5 μL of the HIF-1α C35 substrate mix prepared as a 4× concentrate in the dilution buffer containing 120 nM biotin-labeled HIF-1α C35, 132 nM SA-D2, 4 μM 2-oxoglutarate (2-OG) to reach a final reaction volume of 20 μL. […]

SMILES	Selectivity of PHD1 over PHD2 [fold]
CC(C)(CNC(=O)c1ncc(-c2ccc3cc(OCCc4ccc(Cl)cc4)ccc3c2)cc1O)C(=O)O [compound 28, 3-(5-(6-(4-chlorophenethoxy)naphthalen-2-yl)-3-hydroxypicolinamido)-2,2-dimethylpropanoic acid]	~9
CC(C)(CNC(=O)c1ncc(-c2cccc(N)c2)cc1O)C(=O)O [compound 29, 3-(5-(3-aminophenyl)-3-hydroxypicolinamido)-2,2-dimethylpropanoic acid]	~20
CC(C)(CNC(=O)c1ncc(-c2cccc(NCc3ccc(Cl)cc3)c2)cc1O)C(=O)O [compound 30, 3-(5-(3-((4-Chlorobenzyl)amino)phenyl)-3-hydroxypicolinamido)-2,2-dimethylpropanoic acid]	~223
CC(C)(CNC(=O)c1ncc(-c2cccc(OCCc3ccc(Cl)cc3)c2)cc1O)C(=O)O [compound 31, 3-(5-(3-(4-chlorophenethoxy)phenyl)-3-hydroxypicolinamido)-2,2-dimethylpropanoic acid]	~40
CC(C)(C)OC(=O)N1CCC(n2cc(-c3cnc(C(=O)NCC(C)(C)C(=O)O)c(O)c3)cn2)CC1 [compound 32, 3-(5-(1-(1-(tert-butoxycarbonyl)piperidin-4-yl)-1H-pyrazol-4-yl)-3-hydroxypicolinamido)-2,2-dimethylpropanoic acid]	~444
CC(C)(C)OC(=O)N1CCc2sc(-c3cnc(C(=O)NCC(C)(C)C(=O)O)c(O)c3)cc2C1 [compound 33, 3-(5-(5-(tert-butoxycarbonyl)-4,5,6,7-tetrahydrothieno[3,2-c]pyridin-2-yl)-3-hydroxypicolinamido)-2,2-dimethylpropanoic acid]	~1605
CC(C)(CNC(=O)c1ncc(-c2cnn(-c3ccc(Cl)cc3Cl)c2)cc1O)C(=O)O [compound 34, 3-(5-(1-(2,4-dichlorophenyl)-1H-pyrazol-4-yl)-3-hydroxypicolinamido)-2,2-dimethylpropanoic acid]	~24
CC(C)(CNC(=O)c1ncc(-c2cc3nc(Cl)ccc3s2)cc1O)C(=O)O [compound 35, 3-(5-(5-chlorothieno[3,2-b]pyridin-2-yl)-3-hydroxypicolinamido)-2,2-dimethylpropanoic acid]	~271
CC(C)(CNC(=O)c1ncc(-c2ccc(S(=O)(=O)N3CCCC3)cc2CO)cc1O)C(=O)O [compound 36, 3-(3-hydroxy-5-(2-(hydroxymethyl)-4-(pyrrolidin-1-ylsulfonyl)phenyl)picolinamido)-2,2-dimethylpropanoic acid]	~113
CC(C)(CNC(=O)c1ncc(-c2cnn(-c3cccc(C(F)(F)F)c3)c2)cc1O)C(=O)O [compound 37, 3-(3-hydroxy-5-(1-(3-(trifluoromethyl)phenyl)-1H-pyrazol-4-yl)picolinamido)-2,2-dimethylpropanoic acid]	~25
CC(C)(CNC(=O)c1ncc(-c2cnn3c2CCCC3)cc1O)C(=O)O [compound 38, 3-(3-hydroxy-5-(4,5,6,7-tetrahydropyrazolo[1,5-a]pyridin-3-yl)picolinamido)-2,2-dimethylpropanoic acid]	~49
Cc1ccnc2ccc(-c3cnc(C(=O)NCC(C)(C)C(=O)O)c(O)c3)cc12 [compound 39, 3-(3-hydroxy-5-(4-methylquinolin-6-yl)picolinamido)-2,2-dimethylpropanoic acid]	~230
Cc1cccc2cc(-c3cnc(C(=O)NCC(C)(C)C(=O)O)c(O)c3)cnc12 [compound 40, 3-(3-hydroxy-5-(8-methylquinolin-3-yl)picolinamido)-2,2-dimethylpropanoic acid]	~20
COc1ccc2cc(-c3cnc(C(=O)NCC(C)(C)C(=O)O)c(O)c3)ccc2c1 [compound 41, 3-(3-hydroxy-5-(6-methoxynaphthalen-2-yl)picolinamido)-2,2-dimethylpropanoic acid]	~1960
CC(C)(CNC(=O)c1ncc(-c2ccc3cnccc3c2)cc1O)C(=O)O [compound 42, 3-(3-hydroxy-5-(isoquinolin-6-yl)picolinamido)-2,2-dimethylpropanoic acid]	~197
CC(C)(CNC(=O)c1ncc(-c2ccc3ccncc3c2)cc1O)C(=O)O [compound 43, 3-(3-hydroxy-5-(isoquinolin-7-yl)picolinamido)-2,2-dimethylpropanoic acid]	~1875
Cc1ccc2ccc(-c3cnc(C(=O)NCC(C)(C)C(=O)O)c(O)c3)c(F)c2n1 [compound 44, 3-(5-(8-fluoro-2-methylquinolin-7-yl)-3-hydroxypicolinamido)-2,2-dimethylpropanoic acid]	~1833
Cc1ccc2cc(-c3cnc(C(=O)NCC(C)(C)C(=O)O)c(O)c3)ccc2n1 [compound 45, 3-(3-hydroxy-5-(2-methylquinolin-6-yl)picolinamido)-2,2-dimethylpropanoic acid]	~3740
CC(C)(CNC(=O)c1ncc(-c2ccc3nccnc3c2)cc1O)C(=O)O [compound 46, 3-(3-hydroxy-5-(quinoxalin-6-yl)picolinamido)-2,2-dimethylpropanoic acid]	~124
CC(C)(CNC(=O)c1ncc(-c2cn(CCCc3ccc(Cl)cc3)nn2)cc1O)C(=O)O [compound 47, 3-(5-(1-(3-(4-chlorophenyl)propyl)-1H-1,2,3-triazol-4-yl)-3-hydroxypicolinamido)-2,2-dimethylpropanoic acid]	~10
CC(CNC(=O)c1ncc(-c2ccc3ccccc3c2)cc1O)C(=O)O (centres unmarked) [compound 48, 3-(3-Hydroxy-5-(naphthalen-2-yl)picolinamido)-2-methylpropanoic acid]	~167
CC(CNC(=O)c1ncc(-c2cccc(Cl)c2)cc1O)C(=O)O (centres unmarked) [compound 49, 3-(5-(3-chlorophenyl)-3-hydroxypicolinamido)-2-methylpropanoic acid]	~12
CC(CNC(=O)c1ncc(-c2cnn(-c3ccccc3)c2)cc1O)C(=O)O (centres unmarked) [compound 50, 3-(3-hydroxy-5-(1-phenyl-1H-pyrazol-4-yl)picolinamido)-2-methylpropanoic acid]	~50
CC(C)(CNC(=O)c1nc(C#N)c(-c2cccc(Cl)c2)cc1O)C(=O)O [compound 51, 3-(5-(3-chlorophenyl)-6-cyano-3-hydroxypicolinamido)-2,2-dimethylpropanoic acid]	~4
CC(C)(CNC(=O)c1ncc(-c2cccc(NCCc3ccc(Cl)cc3)c2)cc1O)C(=O)O [compound 52, 3-(5-(3-((4-Chlorophenethyl)amino)phenyl)-3-hydroxypicolinamido)-2,2-dimethylpropanoic acid]	~31
CC(C)(CNC(=O)c1ncc(-c2cnc(-c3ccccc3)s2)cc1O)C(=O)O [compound 53, 3-(3-hydroxy-5-(2-phenylthiazol-5-yl)picolinamido)-2,2-dimethylpropanoic acid]	~1215
